The nature of data set [1]: Pharmacokinetic studies after single oral doses in baboons. The following applies: monkey, plasma.
Procedure: (§1) Chronic indwelling venous and arterial catheters which were maintained using sterile technique for blood sampling. Compounds were administered by nasogastric tube and blood was collected to determine drug plasma levels at regular intervals following single oral doses. […] The test compounds were analyzed after ether extraction of the plasma, separation by HPLC, and quantitated by comparison to a spilled internal standard of heptanoic acid according to previously described methods.
A short description of data set [2]: Pharmacokinetics after single oral doses in human volunteers. To be noted: FIG. 4, in humans, oral doses of 40-500 mg/kg. The format is in vivo.
Procedure: as §1
A further data set deals with K562 cells. Nature of the data set: Treatment of K562 cells and analysis of globin mRNA by primer extension. Format: cell-based, human. To be noted: for fold induction at 1000 µM: Homo sapiens, K562, 72 h, read-out: increase in γ-globin mRNA over constitutive levels in untreated control K562 cells; for stimulating γ globin compared to control cells (ranking in words) / Radioactivity Alpha Globin (α) mRNA / Radioactivity Fetal Globin (γ) mRNA / γ/α: K562 cells; for Radioactivity Alpha Globin (α) mRNA / Radioactivity Fetal Globin (γ) mRNA: phosphorimager; for γ/α: ratio of globin mRNA radioactivity. The method, then: K562 cells kindly provided by Dr. George Atweh were cultured with 10% fetal bovine serum (Sigma, St. Louis, Mo.) and RPMI media (Grand Island Biological Company, Grand Island, N.Y.) in a humidified atmosphere with 5% CO2/95% air. Compounds were tested at a final concentration of 1 mM at neutral pH and included butyric acid, phenoxyacetic acid, dimethylbutric acid, alpha-methylhydrocionamic acid, 2,3, and 4-methoxyhydrocinnamic acid, dihydrocinnamic acid, methoxycinnamic acid, methoxyacetic acid, phenylpropionic acid, amino hydrocinnamic acid, DL β- and DL-βamino-n-butyric acid, cinnamic acid, and 2 methylhydrocinnamic acid (Aldrich Chemical Company, St. Louis, Mo.). Additional compounds studied included dimethylhydroxy acetic acid, dimethylpropionic acid, dimethylphenoxyacetic acid, and dimethylmethoxyacetic acid. After three days of culture with these agents, mRNA was purified and α, β, and γ globin mRNA was analyzed by primer extension using oligonucleotide primers and quantitation on a PhosphoImager as previously described.

The test system of data set [3] is mice transgenic for a human beta globin locus YAC containing a silenced gamma globin gene. The data set can be described thus: In vivo experiments in mice transgenic for the human beta globin gene locus. As to the method:
Three prototype compounds, methylhydrocinnamic acid (MHCA), phenoxyacetic acid (PAA), and dimethylbutyric acid PMB), were administered at doses from 100 to 250 mg/kg in two daily doses by intraperitoneal injection to mice transgenic for a human beta globin locus YAC containing a silenced gamma globin gene. Reticulocytes, newly synthesized red blood cells, were counted daily and non-alpha globin in MRNA was analyzed by Rnase protection. Only 50 microliters of blood were removed daily for testing. A 5 to 10-fold increase in reticulocytes and a 1.7-2.4 fold increase in gamma globin mRNA was observed within one week of therapy with the three protype compounds. In contrast, control mice to which normal saline was administered, with the same degree of phlebotomy for testing, had no significant changes in reticulocytes or globin in mRNA.

A further data set concerns thalassemic patients. The data set can be described thus: Pulsed arginine butyrate infusion in thalassemic disorders. The format is in vivo. To be noted: 4 days with infusions about 8 hours per day, then 7 days of no treatment. As to the method: Individual pulses can be delivered to the patient continuously over a period of several hours, such as about 2, 4, 6, 8, 10, 12, 14 or 16 hours, or several days, such as 2, 3, 4, 5, 6, or 7 days, preferably from about 1 hour to about 24 hours and more preferably from about 3 hours to about 9 hours. Alternatively, periodic doses can be administered in a single bolus or a small number of injections of the composition over a short period of time, typically less than 1 or 2 hours. […] Substantially means that there are positive consequences that raise the patient's standard of living such as, for example, increased activity or mobility, fewer side-effects, fewer hospital stays or visits to the physician, or fewer transfusions.
Compositions administered in pulses have the surprising benefit of reducing the overall load of drug on the patient as the total amount of drug administered can be substantially less than that amount that has been therapeutically administered by conventional continuous therapy. […] Preferably, the therapeutically effective pulsed dose is less than the continuous dose, or less than one half, one third, one quarter, one fifth, one tenth or even one twentieth of the therapeutic continuous dose of the same composition or even less.

Data set [4] in a line: In vivo half-life of the composition. As to the method: The interval between pulses or the interval of no delivery is greater than 24 hours and preferably greater than 48 hours, and can be for even longer such as for 3, 4, 5, 6, 7, 8, 9 or 10 days, two, three or four weeks or even longer. As the results achieved may be surprising, the interval between pulses, when necessary, can be determined by one of ordinary skill in the art. Often, the interval between pulses can be calculated by administering another dose of the composition when the composition or the active component of the composition is no longer detectable in the patient prior to delivery of the next pulse. Intervals can also be calculated from the in vivo half-life of the composition. Intervals may be calculated as greater than the in vivo half-life, or 2, 3, 4, 5 and even 10 times greater the composition half-life.

In the next data set the test system is bone marrow cells. To be noted: continuous intravenous administration; cited from earlier work.
The test system of data set [5] is Mononuclear cells from patients with sickle cell disease or thalassemia trait. Nature of the data set: Erythroid colony (BFU-E) cultures in methylcellulose. The format is cell-based, human. The following applies: 0.2-0.5 mM, optimal growth factors. As to the method:
Mononuclear cells from patients with sickle cell disease or thalassemia trait were isolated on Ficoll Hypague, washed, and cultured in methylcellulose media with optimal concentrations of hematopoietic growth factors IL-3, GM-CSF, Stem Cell Factor, IL6, 3 U/ml Eiythropoietin, insulin, bovine serum albumin, and 0.2-0.5 mM concentrations of test compounds of derivatives of cinnamic acid and hydrocinnamic acid. […] The following illustrates some representative cultures: […]

Data set [6] deals with system A transport of amino acids. Nature of the data set: System A transport of amino acids. The format is cell-based. From the text: Normal cell viability, the viability of an untransformed or uninfected cell, can be determined from analyzing the effects of the composition on one or more biological processes of the cell. Detrimental interference with one or more of these cellular processes becomes significant when the process becomes abnormal. Examples of quantitatable and qualifiable biological processes include the processes of cell division, protein synthesis, nucleic acid (DNA or RNA) synthesis, nucleic acid (principally DNA) fragmentation and apoptosis. Others processes include specific enzyme activities, the activities of the cellular transportation systems such as the transportation of amino acids by system A (neutral), system B (acidic) or system C (basic), and the expression of a cell surface protein. […] Abnormal cell division, for example, can be mitosis which occurs too rapidly, as in a malignancy, or unstably, resulting in programmed cell death or apoptosis, detected by increased DNA degradation. The determination of abnormal cell viability can be made on comparison with untreated control cells. Compositions preferably increase normal cell viability. Increased cell viability can be determined by those of ordinary skill in the art using, for example, DNA fragmentation analysis. […]

Another data set in a line: in vivo. To be noted: monkey, po.
The test system of the next data set is 32D cells. The data set can be described thus: Proliferation studies using 32D cells at low IL-3. The format is cell-based, murine. To be noted: 32D cells, low IL-3 (0.5 U/ml), FIG. 7. As to the method: 32D cells were cultured in RPMI media with 10% fetal bovine serum (Sigma, St. Louis, Mo.), […] glutamine (GIBCO), and murine IL3 (20 U/ml) (Biosource International). Growth factor controls used included the standard concentration of IL-3 required for proliferation of these cells (25 U/ml) and a 50-fold lower concentration (0.5 U/ml), and erythropoietin (3 U/ml) or G-CSF ( U/ml), (Amgen, Thousand Oaks, Calif.). The test compounds were added at final concentrations of 1 mM. As a cell density of 2.5−10×10^5 is necessary for growth of this cell line, this density was maintained by passing the cells at three day intervals or by concentrating the cells when apoptosis occurred. Proportions of cells which were viable or apoptotic, and the fraction of cells in each part of the cell cycle was assessed by incubating the cells with Trypan blue and enumeration, and with propidium iodide incubation and FACScan analysis as previously described.
The effects of the representative compounds which have been synthesized or selected for resistance to beta oxidative metabolism and glucuronidation in stimulating γ globin gene expression in a human erythroid-like cell line and for their effects on cell growth utilizing a multi-lineage murine hematopoietic cell line, 32D. This cell line is dependent on high concentrations of IL-3 for growth. […]

A further data set relates to anemic baboon. The data set can be described thus: Hematopoietic stimulation in an anemic phlebotomized baboon. Format: in vivo. The following applies: administered for five days, baboon phlebotomized 5% of blood volume daily, FIG. 13. As to the method: An increase in multiple blood cell lineages resulted when a prototype hemokine compound (α methylhydrocinnamic acid) was administered for five days to an anemic baboon, which was being phlebotomized 5% of its blood volume daily.

Where [7] appears, read: 100 to 250 mg/kg in two daily doses, intraperitoneal, listed as DMB.

“And” between values parts separate entries of the source, which are not always exact repeats. Equal values may be shown once. Read-outs that look alike come from different tables or passages of the source.

As a reminder, the half-life is the time needed for the level to fall by half in the phase considered.

Compound `CCC(C)(C)C(=O)O` [ST 20, 2,2 dimethylbutyric acid] showed a half-life in data set [1] of 6.8 h. Besides, the “time for which plasma levels persisted in the millimolar range” value in data set [2] is “greater than 6 hours”. Moreover, the fold induction at 1000 µM with K562 cells (primer extension, 1 mM, three days of culture, FIG. 1) fell in the range of 2.4 to 26. Also, in the data set with K562 cells (1 mM), the “stimulating γ globin compared to control cells (ranking in words)” value was “most active”, the “Radioactivity Alpha Globin (α) mRNA” value came out at 178751, the “Radioactivity Fetal Globin (γ) mRNA” value was 1697936 and the γ/α came out at 9.5. In addition, in data set [3] (setting [7]), the “Reticulocytes Peak” value is 17.7 and 21.3; the “γ/γ + β mRNA Peak” value is 0.36 and 0.31. In addition, the “γ/γ + β mRNA Day 0” value in data set [3] (baseline of the treated animal, RNase protection, listed as DMB) is 0.20 and 0.17. Besides, the “Reticulocytes Day 0” value in data set [3] (baseline of the treated animal, listed as DMB) was 2.4 and 4.2.
As for arginine butyrate [reference compound], in the data set on thalassemic patients, the “Fetal hemoglobin levels” value is recorded as “rise substantially”. Moreover, in the data set on K562 cells (1 mM), the “Radioactivity Alpha Globin (α) mRNA” value came to 296132, the “Radioactivity Fetal Globin (γ) mRNA” value was 2176523 and the γ/α stood at 7.3. The compound further returned a half-life in data set [4] of 0.25 h.
Consider `Nc1ncn([C@@H]2O[C@H](CO)[C@@H](O)[C@H]2O)c(=O)n1` [AZA, 5-azacytidine], for which, in the data set on bone marrow cells, the “increase in γ globin mRNA of bone marrow cells” value is listed as “five- to seven”.
As to `CC(Cc1ccccc1)C(=O)O` (stereo not drawn) [ST 7, α-methylhydrocinnamic acid], the “Mean BFU-E/culture 4 cultures averaged (per 0.2 million cells)” value in data set [5] turned out to be 223. The “% Increase over control” value in [5] (BFU-E) was determined as 32.4%. In [6], the “system A transport of amino acids” value is reported as “do not significantly alter”. The fold induction at 1000 µM in the data set on K562 cells fell in the range of 2.4 to 26. For the same compound, in the data set with K562 cells (1 mM), the “stimulating γ globin compared to control cells (ranking in words)” value is “most active”, the “Radioactivity Alpha Globin (α) mRNA” value is 92979, the “Radioactivity Fetal Globin (γ) mRNA” value came to 1648056 and the γ/α is 17.7. This compound also gave a half-life in “in vivo” of 7.6 h. The “increase in proliferation over 4 days” value with 32D cells amounted to 5 fold. For the same compound, in the data set with anemic baboon, the “blood cell lineages” value is “increase in both white blood cells and total hemoglobin”. In addition, in data set [3] (100 to 250 mg/kg in two daily doses, intraperitoneal, listed as MHCA), the “Reticulocytes Peak” value was 17.9 and 23.3. Also, the “Reticulocytes Day 0” value in data set [3] (baseline of the treated animal, listed as MHCA) was 2.9 and 2.3.

Source of the values: patent US6451334B2, “Compositions and administration of compositions for the treatment of blood disorders” (priority 1997, dated 2002).
